Results on 27 compounds are retold here after the supplement of paper PMC11424490.

One assay deals with NCI-H2122. Briefly: combination cScore with sotorasib (Bliss gap around IC50) (%PoC); higher = stronger additive effect. An outline of the steps:
(§1)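 NCI-H2122, NCI-H358 and SW837 cells (500 or 800 per well, 384-well plates) were dosed in concentration matrices after 24 h and grown 72 h, or 144 h for SW837. CellTiter-Glo luminescence was normalised to vehicle wells as percent of control and fitted with four-parameter curves. The score averages the Bliss-independence gap (expected minus measured viability) over a field around both monotherapy IC50s, or at the top concentrations when no IC50 was reached.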

The test system of a further assay is SW837. The assay is described as above. An outline of the steps:
as §1

Regarding `O=C(/C=C\n1cnc(-c2cc(C(F)(F)F)cc(C(F)(F)F)c2)n1)NNc1cnccn1` [KPT-330] + C=CC(=O)N1CCN(c2nc(=O)n(-c3c(C)ccnc3C(C)C)c3nc(-c4c(O)cccc4F)c(F)cc23)[C@@H](C)C1 [sotorasib], the results for the “combination cScore with sotorasib” value in the assay with NCI-H2122 and with SW837 were 3.63 and 0.325, respectively.

In the case of `CN[C@@H](C)C(=O)N[C@H](C(=O)N1CCC[C@H]1c1nc(C(=O)c2ccc(F)cc2)cs1)C1CCCCC1` [LCL161] + C=CC(=O)N1CCN(c2nc(=O)n(-c3c(C)ccnc3C(C)C)c3nc(-c4c(O)cccc4F)c(F)cc23)[C@@H](C)C1 [sotorasib], the “combination cScore with sotorasib” value in the assay with NCI-H2122 was 2.3; in the assay on SW837, -3.76.

`COc1ccccc1-c1cc(Nc2cccc(CS(N)(=O)=O)c2)ncn1` [LDC-067] + C=CC(=O)N1CCN(c2nc(=O)n(-c3c(C)ccnc3C(C)C)c3nc(-c4c(O)cccc4F)c(F)cc23)[C@@H](C)C1 [sotorasib]: the “combination cScore with sotorasib” value with NCI-H2122 amounted to 5.31; in the assay with SW837, 11.1.

Regarding `Cc1cn(CCN2CCN(c3ccccc3-c3cc(C#N)cc(C(=O)NCCCN4CCCC4)c3)CC2)c2ccccc12` [LLY-507] + C=CC(=O)N1CCN(c2nc(=O)n(-c3c(C)ccnc3C(C)C)c3nc(-c4c(O)cccc4F)c(F)cc23)[C@@H](C)C1 [sotorasib], the “combination cScore with sotorasib” value in the assay on NCI-H2122 came out at 0.73; with SW837 it was 9.15.

`Cc1ccc(NC(=O)c2ccnc(C(F)(F)F)c2)cc1-c1cc(OCCO)nc(N2CCOCC2)c1` [LXH-254] + C=CC(=O)N1CCN(c2nc(=O)n(-c3c(C)ccnc3C(C)C)c3nc(-c4c(O)cccc4F)c(F)cc23)[C@@H](C)C1 [sotorasib]: the “combination cScore with sotorasib” value with NCI-H2122 is 7.11; in the assay with SW837, 5.53.

Turning to `Nc1cccc2c1CN(C1CCC(=O)NC1=O)C2=O` (centres undefined) [Lenalidomide] + C=CC(=O)N1CCN(c2nc(=O)n(-c3c(C)ccnc3C(C)C)c3nc(-c4c(O)cccc4F)c(F)cc23)[C@@H](C)C1 [sotorasib], the “combination cScore with sotorasib” value was 6.13 with NCI-H2122 and -2.25 in the assay on SW837.

Take `O=C(O)c1nn(Cc2ccc(Cl)cc2Cl)c2ccccc12` [Lonidamine] + C=CC(=O)N1CCN(c2nc(=O)n(-c3c(C)ccnc3C(C)C)c3nc(-c4c(O)cccc4F)c(F)cc23)[C@@H](C)C1 [sotorasib]: the “combination cScore with sotorasib” value was -0.87 with NCI-H2122 and 2.86 in the assay on SW837.

As to `CC[C@H](C)C(=O)O[C@H]1C[C@@H](C)C=C2C=C[C@H](C)[C@H](CC[C@@H]3C[C@@H](O)CC(=O)O3)[C@H]21` [Lovastatin] + C=CC(=O)N1CCN(c2nc(=O)n(-c3c(C)ccnc3C(C)C)c3nc(-c4c(O)cccc4F)c(F)cc23)[C@@H](C)C1 [sotorasib], the “combination cScore with sotorasib” value in the assay on NCI-H2122 was -1.83; in the assay with SW837 it was -0.46.

On to `COc1cc(Nc2ncc3c(n2)-c2ccc(Cl)cc2C(c2c(F)cccc2OC)=NC3)ccc1C(=O)O` [MLN8237] + C=CC(=O)N1CCN(c2nc(=O)n(-c3c(C)ccnc3C(C)C)c3nc(-c4c(O)cccc4F)c(F)cc23)[C@@H](C)C1 [sotorasib], for which the “combination cScore with sotorasib” value is -3.51 with NCI-H2122 and 10.3 with SW837.

As for `Cc1ccc(NC(=O)c2ccc(CN3CCN(C)CC3)cc2)cc1Nc1nc(-c2cccnc2)cs1` [Masitinib] + C=CC(=O)N1CCN(c2nc(=O)n(-c3c(C)ccnc3C(C)C)c3nc(-c4c(O)cccc4F)c(F)cc23)[C@@H](C)C1 [sotorasib], the “combination cScore with sotorasib” value is 17.9 in the assay on NCI-H2122 and -1.47 in the assay with SW837.

On to `C[C@H](Cc1ccc(O)c(O)c1)[C@@H](C)Cc1ccc(O)c(O)c1` [Masoprocol] + C=CC(=O)N1CCN(c2nc(=O)n(-c3c(C)ccnc3C(C)C)c3nc(-c4c(O)cccc4F)c(F)cc23)[C@@H](C)C1 [sotorasib], for which the results for the “combination cScore with sotorasib” value with NCI-H2122 and in the assay on SW837 were -1.02 and 1.64, respectively.

As for `N[C@@H](Cc1ccc(N(CCCl)CCCl)cc1)C(=O)O` [Melphalan] + C=CC(=O)N1CCN(c2nc(=O)n(-c3c(C)ccnc3C(C)C)c3nc(-c4c(O)cccc4F)c(F)cc23)[C@@H](C)C1 [sotorasib], the “combination cScore with sotorasib” value in the assay on NCI-H2122 was 2.92; in the assay on SW837 it was 4.26.

As to `CN(C)C(=N)NC(=N)N` [Metformin] + C=CC(=O)N1CCN(c2nc(=O)n(-c3c(C)ccnc3C(C)C)c3nc(-c4c(O)cccc4F)c(F)cc23)[C@@H](C)C1 [sotorasib], the “combination cScore with sotorasib” value in the assay on NCI-H2122 was 5.93; in the assay on SW837, -0.945.

In the case of `CN(Cc1cnc2nc(N)nc(N)c2n1)c1ccc(C(=O)N[C@@H](CCC(=O)O)C(=O)O)cc1` [Methotrexate] + C=CC(=O)N1CCN(c2nc(=O)n(-c3c(C)ccnc3C(C)C)c3nc(-c4c(O)cccc4F)c(F)cc23)[C@@H](C)C1 [sotorasib], the entries for the “combination cScore with sotorasib” value in the assay with NCI-H2122 and in the assay on SW837 were -3.03 and -3.51, respectively.

`CO[C@@]12[C@H](COC(N)=O)C3=C(C(=O)C(C)=C(N)C3=O)N1C[C@@H]1N[C@@H]12` [Mitomycin C] + C=CC(=O)N1CCN(c2nc(=O)n(-c3c(C)ccnc3C(C)C)c3nc(-c4c(O)cccc4F)c(F)cc23)[C@@H](C)C1 [sotorasib]: the “combination cScore with sotorasib” value was 11 in the assay with NCI-H2122 and 4.84 in the assay with SW837.

`CCc1cccc(CC)c1NC(=O)c1nn(C)c2c1CCc1cnc(Nc3ccc(C(=O)NC4CCN(C)CC4)cc3OC(F)(F)F)nc1-2` [NMS-P715] + C=CC(=O)N1CCN(c2nc(=O)n(-c3c(C)ccnc3C(C)C)c3nc(-c4c(O)cccc4F)c(F)cc23)[C@@H](C)C1 [sotorasib]: the “combination cScore with sotorasib” value came out at 2.28 with NCI-H2122 and 13.2 in the assay with SW837.

As for `O=c1cc(N2CCOCC2)oc2c(-c3cccc4c3sc3ccccc34)cccc12` [NU-7441] + C=CC(=O)N1CCN(c2nc(=O)n(-c3c(C)ccnc3C(C)C)c3nc(-c4c(O)cccc4F)c(F)cc23)[C@@H](C)C1 [sotorasib], the “combination cScore with sotorasib” value in the assay with NCI-H2122 worked out at 15; in the assay on SW837, 9.27.

`Cn1c(=O)n(-c2ccc(C(C)(C)C#N)cc2)c2c3cc(-c4cnc5ccccc5c4)ccc3ncc21` [NVP-BEZ235] + C=CC(=O)N1CCN(c2nc(=O)n(-c3c(C)ccnc3C(C)C)c3nc(-c4c(O)cccc4F)c(F)cc23)[C@@H](C)C1 [sotorasib]: the entries for the “combination cScore with sotorasib” value with NCI-H2122 and in the assay with SW837 were 12 and 7.37, respectively.

For `Cc1cn(-c2cc(NC(=O)c3ccc(C)c(Nc4nccc(-c5cccnc5)n4)c3)cc(C(F)(F)F)c2)cn1` [Nilotinib] + C=CC(=O)N1CCN(c2nc(=O)n(-c3c(C)ccnc3C(C)C)c3nc(-c4c(O)cccc4F)c(F)cc23)[C@@H](C)C1 [sotorasib], the “combination cScore with sotorasib” value came to 6.86 in the assay on NCI-H2122 and 14.3 in the assay on SW837.

As to `COC(=O)c1ccc2c(c1)NC(=O)/C2=C(\Nc1ccc(N(C)C(=O)CN2CCN(C)CC2)cc1)c1ccccc1` [Nintedanib] + C=CC(=O)N1CCN(c2nc(=O)n(-c3c(C)ccnc3C(C)C)c3nc(-c4c(O)cccc4F)c(F)cc23)[C@@H](C)C1 [sotorasib], the “combination cScore with sotorasib” value in the assay on NCI-H2122 amounted to 11.8; in the assay on SW837, 0.78.

As for `CN1CCN(c2ccc(-c3cccc(CN4CCOCC4)c3)cc2NC(=O)c2c[nH]c(=O)cc2C(F)(F)F)CC1` [OICR-9429] + C=CC(=O)N1CCN(c2nc(=O)n(-c3c(C)ccnc3C(C)C)c3nc(-c4c(O)cccc4F)c(F)cc23)[C@@H](C)C1 [sotorasib], the entries for the “combination cScore with sotorasib” value in the assay with NCI-H2122 and with SW837 were 9.62 and 3.36, respectively.

`O=C(O)C(=O)O.[NH-][C@@H]1CCCC[C@H]1[NH-].[Pt+2]` [Oxaliplatin] + C=CC(=O)N1CCN(c2nc(=O)n(-c3c(C)ccnc3C(C)C)c3nc(-c4c(O)cccc4F)c(F)cc23)[C@@H](C)C1 [sotorasib]: the results for the “combination cScore with sotorasib” value with NCI-H2122 and with SW837 were 13.8 and 3.16, respectively.

As to `CCCS(=O)(=O)Nc1ccc(F)c(C(=O)c2c[nH]c3ncc(Cl)cc23)c1F` [PLX4720] + C=CC(=O)N1CCN(c2nc(=O)n(-c3c(C)ccnc3C(C)C)c3nc(-c4c(O)cccc4F)c(F)cc23)[C@@H](C)C1 [sotorasib], the “combination cScore with sotorasib” value was found to be 17.4 with NCI-H2122 and 2.2 in the assay with SW837.

For the compound `CC(=O)O[C@H]1C(=O)[C@@]2(C)[C@H]([C@H](OC(=O)c3ccccc3)[C@]3(O)C[C@H](OC(=O)[C@H](O)[C@@H](NC(=O)c4ccccc4)c4ccccc4)C(C)=C1C3(C)C)[C@]1(OC(C)=O)CO[C@@H]1C[C@@H]2O` [Paclitaxel] + C=CC(=O)N1CCN(c2nc(=O)n(-c3c(C)ccnc3C(C)C)c3nc(-c4c(O)cccc4F)c(F)cc23)[C@@H](C)C1 [sotorasib], the “combination cScore with sotorasib” value in the assay with NCI-H2122 was found to be 9.86; in the assay with SW837, 3.37.

Take `Cc1ccc(Nc2nccc(N(C)c3ccc4c(C)n(C)nc4c3)n2)cc1S(N)(=O)=O` [Pazopanib] + C=CC(=O)N1CCN(c2nc(=O)n(-c3c(C)ccnc3C(C)C)c3nc(-c4c(O)cccc4F)c(F)cc23)[C@@H](C)C1 [sotorasib]: the “combination cScore with sotorasib” value with NCI-H2122 was found to be 9.15; in the assay on SW837 it was 2.58.

Regarding `Nc1nc2[nH]cc(CCc3ccc(C(=O)N[C@@H](CCC(=O)O)C(=O)O)cc3)c2c(=O)[nH]1` [Pemetrexed] + C=CC(=O)N1CCN(c2nc(=O)n(-c3c(C)ccnc3C(C)C)c3nc(-c4c(O)cccc4F)c(F)cc23)[C@@H](C)C1 [sotorasib], the “combination cScore with sotorasib” value came to 1.36 with NCI-H2122 and 16.4 with SW837.

On to `CC(C)(C)c1cc(NC(=O)Nc2ccc(-c3cn4c(n3)sc3cc(OCCN5CCOCC5)ccc34)cc2)no1` [Quizartinib] + C=CC(=O)N1CCN(c2nc(=O)n(-c3c(C)ccnc3C(C)C)c3nc(-c4c(O)cccc4F)c(F)cc23)[C@@H](C)C1 [sotorasib], for which the “combination cScore with sotorasib” value in the assay with NCI-H2122 was -1.22; with SW837, -4.13.
